# In US20230035479A1, “METHODS AND COMPOSITIONS FOR REDUCING HAIR GREYING” (President and Fellows of Harvard College, priority 2019, published 2023):
# Where two headings read alike, the source gives them in different places.
# Columns and labels:
# [1] = test system: melanocyte stem cells (MeSCs); experiment: MeSC numbers in hair follicles, TRP2 immunofluorescence or membrane GFP tracing; details: for MeSC preservation in RTX-injected animals: topical 5 mg/kg, until 48 hours post RTX injection, full anagen
# Method: For RTX injection, mice received injections of RTX (30-100 μg/kg) in the flank for 1-3 days as described previously [15, 16, 51-56]. […] Control mice were treated with the vehicle only. RTX injection was done either in full anagen (P31-P36) or in 1st telogen (P21). […] Mice were treated for three days (P28-P30). […] RTX was given at Anagen VI (P31˜P36).
# C57BL/6J mice = format: in vivo, mouse
# mature melanocytes = experiment: Differentiated/mature melanocytes and hair bulb cells, immunofluorescence; format: in vivo, mouse; details: full anagen; for proliferation of cells in the hair bulb: RTX-injected animals, topical CDK inhibitors
# Method: Loss of hair pigmentation can be due to defects in melanin synthesis, loss of differentiated melanocytes, or problems in MeSC maintenance. To understand how stress impacts the melanocyte lineage, RTX was injected into mice in anagen, when both MeSCs and differentiated melanocytes were present but located within distinct compartments—MeSCs were near to the bulge while differentiated melanocytes were at the hair bulb (FIG. 1E). […] These differentiated melanocytes continued to generate pigments, and the hair coat remained black (FIGS. 6F-6G). When hair follicles in the RTX-injected animals entered catagen and telogen, many have lost all MeSCs (FIG. 1E, Telo). Subsequently, when the next round of anagen initiated, differentiated melanocytes were not produced to color new hair shafts, and unpigmented hairs emerged (FIG. 1E, 2nd Ana, FIG. 6H). […] In this case, unpigmented hairs appeared as soon as new hairs emerged in the following anagen (FIGS. 7A-7B). […] MeSCs were also lost or reduced in mice subjected to restraint stress or chronic unpredictable stress (FIG. 7C). Since stress depleted MeSCs, the loss of hair pigmentation in all three conditions was permanent (FIG. 7D).
# Quiescence is a key feature of many somatic stem cells. Loss of quiescence has been postulated to cause MeSC loss in Bcl2 mutants. To examine if stress alters MeSCs quiescence, RTX or norepinephrine was injected into mice that had entered full anagen, when MeSCs are normally quiescent. A dramatic increase in the number of proliferating MeSCs was seen within 24 hours after RTX or norepinephrine injection—about 50% of MeSCs became positive for Phospho-Histone H3, an M phase marker (FIG. 4B). This number is in sharp contrast to the MeSC proliferation seen in early anagen (˜6%), the only stage when MeSCs proliferate to self-renew (FIG. 11E).
# (§1) Mouse skin samples were fixed using 4% paraformaldehyde (PFA) for 15 minutes at room temperature, washed 6 times with PBS, and immersed in 30% sucrose overnight at 4° C. Samples were then embedded in OCT (Sakura Finetek). 35˜50 μm sections were fixed in 4% paraformaldehyde (PFA) for 2 minutes and washed with PBS and PBST. Slides were then blocked using blocking buffer (5% donkey serum; 1% BSA, 2% cold water fish gelatin in 0.3% Triton in PBS) for 1 hour at room temperature, followed by staining with primary antibodies overnight at 4° C. and secondary antibody for 4 hours at room temperature. For sympathetic nerve density quantification, 90 μm sections were used. EdU was developed for 1 hour using the Click-It reaction according to manufacturer instructions (Thermo Fisher Scientific). TUNEL assay was performed according to manufacturer instructions (Roche). Fontana—Masson staining was performed according to manufacturer instructions (Market Lab ML7255). Antibodies used: TRP2 (Santa Cruz 10451, 1:800), tyrosine hydroxylase (rabbit, Millipore AB152, 1:1000 or sheep, Millipore AB1542, 1:150-1:300), c-Fos (Abcam, 190289, 1:1000), γ-H2AX (Cell Signaling, 9718, 1:400), phospho-histone H3 (rabbit, Cell Signaling Technology 3377S, 1:500), cleaved caspase 3 (rabbit, Cell Signaling Technology 9664S, 1:400), GFP (rabbit, Abcam ab290, 1:1000 or chicken, Ayes labs GFP-1010, 1:200), CD3 (eBioscience 14-0032-81, 1:800), CD11b (eBioscience 14-0112-81, 1:800), Phospho-CREB (Cell Signaling 9198, 1:800), MITF (Abcam ab12039, 1:400).
# [2] = test system: melanocyte stem cells (MeSCs); experiment: MeSC proliferation, Phospho-Histone H3 immunofluorescence; details: for MeSC quiescence in RTX-injected animals: topical 5 mg/kg, until 48 hours post RTX injection
# Method: For RTX injection, mice received injections of RTX (30-100 μg/kg) in the flank for 1-3 days as described previously [15, 16, 51-56]. […] Control mice were treated with the vehicle only. RTX injection was done either in full anagen (P31-P36) or in 1st telogen (P21). […] RTX was given at Anagen VI (P31˜P36).
# All images were acquired using a Zeiss LSM 880 confocal microscope or Keyence microscope using ×20 or ×40 magnification lenses. Images are presented as Maximum Intensity Projection images. For colocalization analysis, images are presented as a single Z stack.
# Gq-DREADD = Gq-DREADD (Homo sapiens, UniProt P20309, A239G/Y149C); experiment: Sympathetic nerve activation with Gq-DREADD by intradermal CNO
# Gq-DREADD, sequence (P20309 whole entry Y149C/A239G): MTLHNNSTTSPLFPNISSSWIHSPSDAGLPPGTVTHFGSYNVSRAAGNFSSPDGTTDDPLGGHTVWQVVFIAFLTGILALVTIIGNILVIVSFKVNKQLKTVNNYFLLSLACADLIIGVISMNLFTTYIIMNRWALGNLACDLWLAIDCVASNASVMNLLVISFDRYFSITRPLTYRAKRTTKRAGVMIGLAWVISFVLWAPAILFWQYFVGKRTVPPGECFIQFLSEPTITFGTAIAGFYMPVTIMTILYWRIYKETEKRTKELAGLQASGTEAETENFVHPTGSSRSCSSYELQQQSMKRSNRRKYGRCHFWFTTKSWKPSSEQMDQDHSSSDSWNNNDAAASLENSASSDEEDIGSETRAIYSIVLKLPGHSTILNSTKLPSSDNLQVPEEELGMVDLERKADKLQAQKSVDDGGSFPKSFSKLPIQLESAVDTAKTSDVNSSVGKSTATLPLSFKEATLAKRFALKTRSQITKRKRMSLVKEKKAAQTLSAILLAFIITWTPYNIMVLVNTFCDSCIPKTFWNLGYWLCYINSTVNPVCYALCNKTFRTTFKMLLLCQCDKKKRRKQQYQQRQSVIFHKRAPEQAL
# From the text: To determine if sympathetic nerve activation in the absence of stress is sufficient to drive MeSC loss, a chemogenetic approach was taken using the Designer Receptor Exclusively Activated by Designer Drugs (DREADDs) system [3, 4]. Gq-DREADD is an artificial Gq-protein coupled receptor activated by the inert molecule Clozapine N-Oxide (CNO) but not by endogenous ligands. Activation of Gq-DREADD leads to intracellular calcium release and neuronal firing. TH-CreER; CAG-lsl-Gq-DREADD; Rosa-mT/mG mice were generated, which allowed for artificial activation of sympathetic nerves with CNO (FIG. 3D).
# Control mice were treated with the vehicle only. […] For tamoxifen treatment, tamoxifen was diluted in corn oil to a final concentration of 20 mg/ml. To induce recombination, 20 mg/kg was injected intraperitoneally once per day for 4-7 days. For mosaic induction of Tyr-CreER and TH-CreER, 20 mg/kg tamoxifen was injected intraperitoneally once per day for 3 days. […] Control animals were injected with equivalent volume of vehicle (0.1% ascorbic acid in 0.9% sterile NaCl) with fluorescent beads. The injection sites were marked using water resistant ink. […] For Induction of Gq-DREADD, 50 μl CNO (1 mg/ml in 0.9% sterile saline) was injected intradermally into experimental animals together with fluorescent beads at full anagen (P31˜P36). Control animals were injected with equivalent volume of vehicle (0.9% sterile saline) together with fluorescent beads.
# (§4) For intradermal injection experiments (NE or CNO), unpigmented hairs were quantified by plucking ˜100 hairs from each injection site (marked by water resistant ink at the time of injection), and the percentage of white hairs were calculated by dividing the number of white hairs by the total number of hairs plucked.
# sympathetic neurons = experiment: c-FOS immunofluorescence in sympathetic ganglia; format: in vivo, mouse; details: TH-CreER; Gq-DREADD mice injected with CNO
# human hair follicles = experiment: Cultured human hair follicles, pigmented bulge or outer root sheath cells; format: cell-based; details: 24 hours
# Method: (§2) FIG. 14C provides quantification of the proportion of follicles that contain pigmented bulge or outer root sheath cells vs those lacking such pigmented cells outside of the bulb region. Human discarded hair bearing skin was cultured for 3 days with single hairs being isolated and grown in semi solid agarose William E medium with vehicle or norepinephrine (0.1 mM) for 24 hours. The cells were assessed after culture to identify those that were pigmented from those that were not. The presence of pigmented cells indicates senescence of melanocyte stem cells. Signal in vehicle control likely reflects the middle-age of the donor follicles.
# Hair follicles from discarded scalp skin of […] was cultured for 3 days. Single hairs were isolated and grown in a semi agarose William E medium with vehicle, norepinephrine (NE) (0.1 mM), or NE (0.1 mM) +butoxamine (0.1 mM) (β2 blocker) for 24 hours. The graph indicates the proportion of follicles containing (or lacking) pigmented melanocytes (see arrows) in the bulge or outer root sheath locations, indicating melanocyte stem cell differentiation/senescence.
# [3] = test system: melanocyte stem cells (MeSCs); experiment: Corticosterone feeding in drinking water; details: corticosterone elevated via feeding, 35 μg/ml in drinking water, three days
# Method: Since all stressors led to elevated corticosterone and norepinephrine in the blood, it was considered if these stress-induced circulating factors played a role in stress-induced MeSC loss.
# Control mice were treated with the vehicle only. […] Mice were treated for three days (P28-P30).
# ADRB2 on MeSCs = ADRB2 on MeSCs (Mus musculus, UniProt P18762); experiment: Hair greying after intradermal norepinephrine injection
# ADRB2 on MeSCs, sequence (P18762 whole entry): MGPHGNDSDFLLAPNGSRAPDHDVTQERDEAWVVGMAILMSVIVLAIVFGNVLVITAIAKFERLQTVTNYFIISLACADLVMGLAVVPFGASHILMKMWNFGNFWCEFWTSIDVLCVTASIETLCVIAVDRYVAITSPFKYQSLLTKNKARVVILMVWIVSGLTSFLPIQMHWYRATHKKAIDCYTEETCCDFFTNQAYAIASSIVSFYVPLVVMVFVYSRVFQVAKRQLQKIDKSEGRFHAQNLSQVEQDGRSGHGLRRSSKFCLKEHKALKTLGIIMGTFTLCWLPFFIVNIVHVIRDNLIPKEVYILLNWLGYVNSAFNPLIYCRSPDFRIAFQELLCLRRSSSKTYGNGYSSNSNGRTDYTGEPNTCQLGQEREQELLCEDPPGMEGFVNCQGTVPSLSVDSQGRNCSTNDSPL
# Method: To test if elevated norepinephrine was sufficient to cause hair greying in the absence of stress, norepinephrine was introduced locally to the skin via intradermal injections.
# For tamoxifen treatment, tamoxifen was diluted in corn oil to a final concentration of 20 mg/ml. To induce recombination, 20 mg/kg was injected intraperitoneally once per day for 4-7 days. […] 50 μm was injected intradermally into experimental animals together with fluorescent beads at full anagen (P31˜P36). Control animals were injected with equivalent volume of vehicle (0.1% ascorbic acid in 0.9% sterile NaCl) with fluorescent beads. The injection sites were marked using water resistant ink.
# as §4
# CREB/ATF1 = CREB/ATF1 phosphorylation in human primary melanocytes; format: cell-based; details: 10 uM, after 15 minutes
# Method: as §2
# (§3) Primary human melanocytes were derived from neonatal foreskin as previously described and cultured in Medium 254 (Invitrogen, Thermo Fisher Scientific). Melanocytes (passages 2 and 4) were starved for 24 hours in HAM's F-10 +1% penicillin/streptomycin/glutamine before adding NE (10 uM).
# [4] = test system: melanocyte stem cells (MeSCs); experiment: Apoptosis (active caspase-3, TUNEL) and DNA damage (gamma-H2AX) in MeSCs; format: in vivo, mouse
# Method: Radiation causes DNA damage in MeSCs, leading to their differentiation within the niche.
# as §1
# [5] = test system: primary human melanocytes; experiment: qRT-PCR in cultured primary human melanocytes treated with norepinephrine; format: cell-based
# Method: as §3
# The cDNA libraries were synthesized using Superscript IV VILO master mix with ezDNase (Thermo Fisher). Quantitative real time PCR was performed using power SYBR green (Thermo Fisher) in an ABI QuantStudio6 Flex qPCR instrument. Ct values were normalized to an internal control of beta-actin.
# [6] = sympathetic nerve ablation, 100 mg/kg intraperitoneally daily P18 to P22
# [7] = topical 5 mg/kg in ethanol, 48 h before to 48 h after RTX
structure (smiles),measurement,setting,value
"NCCc1cc(O)c(O)cc1O [6-OHDA, 6-hydroxy dopamine]",effect on RTX-induced MeSC loss,[1]; [6],blocked RTX-induced hair greying and MeSC loss
same,effect on RTX-induced hair greying,C57BL/6J mice; [6],blocked RTX-induced hair greying
"O=C(NC1CCNCC1)c1n[nH]cc1NC(=O)c1c(Cl)cccc1Cl [AT7519, N-(4-Piperidinyl)-4-(2,6-dichlorobenzoylamino)-1H-pyrazole-3-carboxamide]",proliferation of cells in the hair bulb,mature melanocytes,remained largely normal
same,MeSC preservation in RTX-injected animals,[1],preserved in the niche
same,effect on RTX-induced hair greying,C57BL/6J mice; [7],inhibits RTX-induced hair greying
same,MeSC quiescence in RTX-injected animals,[2],remained quiescent
"C[N+]1([O-])CCN(C2=Nc3cc(Cl)ccc3Nc3ccccc32)CC1 [CNO, Clozapine N-Oxide]",hair greying at CNO injection sites,"Gq-DREADD; TH-CreER, Gq-DREADD mice",led to loss of MeSCs and hair greying at the sites where CNO was injected
same,loss of MeSCs at CNO injection sites,"Gq-DREADD; TH-CreER, Gq-DREADD mice",led to loss of MeSCs
same,MeSC loss with mosaic TH-CreER activation,Gq-DREADD; low dose of tamoxifen,resulted in MeSC loss only in hair follicles innervated by DREADD-positive nerve fibres
same,c-FOS activation in sympathetic ganglia,sympathetic neurons,induced c-FOS activation in sympathetic ganglia
CN1CC[C@H](c2c(O)cc(O)c3c(=O)cc(-c4ccccc4Cl)oc23)[C@H](O)C1 [Flavopiridol],proliferation of cells in the hair bulb,mature melanocytes,remained largely normal
same,MeSC preservation in RTX-injected animals,[1],preserved in the niche
same,effect on RTX-induced hair greying,C57BL/6J mice; [7],inhibits RTX-induced hair greying
same,MeSC quiescence in RTX-injected animals,[2],remained quiescent
COc1ccc(OC)c(C(O)C(C)NC(C)(C)C)c1 (centres unmarked) [butoxamine],effect on norepinephrine-induced melanocyte pigmentation/senescence,"human hair follicles; NE 0.1 mM + butoxamine 0.1 mM, follicles of person",prevents norepinephrine-induced melanocyte pigmentation/senescence
C[C@]12C[C@H](O)[C@H]3[C@@H](CCC4=CC(=O)CC[C@@]43C)[C@@H]1CC[C@@H]2C(=O)CO [corticosterone],changes in MeSCs,[3],no changes in MeSCs or hair pigmentation
same,changes in hair pigmentation,[3],no changes in MeSCs or hair pigmentation
N=C(N)NCCN1CCCCCCC1 [guanethidine],effect on MeSC loss upon RTX injection,"[1]; mouse, in vivo",suppressed hair greying and MeSC loss
NC[C@H](O)c1ccc(O)c(O)c1 [norepinephrine],proliferation or apoptosis in mature melanocytes,mature melanocytes; after injection,no changes in proliferation or apoptosis
same,hair greying at injection sites,ADRB2 on MeSCs; HFSC-specific adrb2 knockout mice,promoted hair greying at the injection sites
same,hair greying at injection sites,ADRB2 on MeSCs; MeSC-specific adrb2 knockout mice,failed to cause hair greying
same,hair greying at injection sites,"ADRB2 on MeSCs; wild type mice, absence of stress",promoted hair greying at the injection sites
same,phosphorylation/activation of CREB/ATF1,CREB/ATF1,induces transient phosphorylation/activation of CREB/ATF1
same,active caspase-3 or TUNEL signals in MeSCs,"[4]; before MeSC depletion from the niche, 1 day after injection",failed to detect active caspase-3 or TUNEL signals
same,gamma-H2AX foci (DNA damage) in MeSCs,[4]; following injection,failure to detect gamma-H2AX foci
same,expression of proliferation and differentiation genes,"[5]; cultured human melanocyte cells, NE 10 uM","rapid induction of proliferation genes like Cdk2, and differentiation genes like Mitf and Tyr"
same,expression of MITF and MITF target genes,[5]; cultured primary human melanocytes,induces MITF and multiple MITF target genes
same,MeSCs positive for Phospho-Histone H3,"[2]; within 24 hours after injection, full anagen",about 50%
same,melanocyte stem cell pigmentation in human hair follicles,human hair follicles; norepinephrine 0.1 mM,heavy norepinephrine-induced melanocyte stem cell pigmentation
